Data reported in patent EP3789378A1, “PIPERIDINES OR PIPERIDONES SUBSTITUTED WITH UREA AND HETEROARYL” (Grünenthal GmbH, priority 2019, dated 2021).
pEC50: −log10 of the molar value.

Each molecule was assayed against T1, h FPR2 (Homo sapiens, UniProt P25090) (assay: Agonistic activity in hFPR2-Aq-CHO cells (FLIPR Calcium 5 fluorescence assay)). Details: 11 point half log dilution, final assay concentration from 10µM.
T1 construct: expressed in transfected cells
T1 sequence (P25090 1-351): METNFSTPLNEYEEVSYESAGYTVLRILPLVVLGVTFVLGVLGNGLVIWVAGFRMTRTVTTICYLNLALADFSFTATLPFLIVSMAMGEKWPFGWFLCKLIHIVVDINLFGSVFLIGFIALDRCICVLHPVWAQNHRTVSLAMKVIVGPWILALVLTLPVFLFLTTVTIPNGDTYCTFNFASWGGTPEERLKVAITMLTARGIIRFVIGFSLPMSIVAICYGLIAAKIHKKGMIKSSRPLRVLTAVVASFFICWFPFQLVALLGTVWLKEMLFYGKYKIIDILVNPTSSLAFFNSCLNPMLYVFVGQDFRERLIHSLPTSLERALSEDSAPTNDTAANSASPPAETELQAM
Assay type: cell-based
Procedure: After washing, the cells are plated at 10,000 cells per well in 40 µL complete medium in a 384-well sterile clear bottom black plate and incubated in a 5% CO2 incubator at 37°C for 18 hours. Plating media is removed from each well by decanting and gentle tapping before 30 µL of 0.5X Calcium 5 dye solution (0.5X FLIPR Calcium 5 dye (Molecular devices, R8186)); HBSS; 20mM HEPES; 2.5mM Probenecid; 0.025% Pluronic F-127; pH adjusted to 7.4) is added to each well and the plate is then incubated at 37°C for 30 minutes. For the assay the plate is equilibrated at room temperature for 10 minutes before placing it in the FLIPR. Compounds are dissolved in DMSO and serially diluted over an 11 point half log (3.16 fold) dilution (2 mM to 20 nM). Compounds are then diluted 1:50 in assay buffer (HBSS; 20mM HEPES; 2.5mM Probenecid; 0.05% gelatin; 0.1% BSA; pH adjusted to 7.4) just before performing the assay. Compounds are finally added to the respective wells of the cell plate (final assay concentration 10 µM to 100 pM) using the FLIPR (e.g. FLIPR-Tetra, Molecular Devices) and fluorescence readings are captured for 5 minutes. The increase in fluorescence from the basal reading in the presence of the compounds is compared with that of the control wells (wells having no compound) to calculate the activity of the compounds. The EC50 values of the compounds can be determined using e.g. Graph pad Prism software.
Assay method for measuring agonistic activity of compounds in hFPR2-Aq-CHO cell
Cryo-vial containing 6x10^6 cells (hFPR1-Gα15-CHO or hFPR2-Aq-CHO) was thawed in a 37°C water bath. Cells were suspended in 10ml of respective complete growth media (F12(1X)HAM media (Gibco; Cat#11765); 10% HI-FBS (Gibco; Cat#10082); 0.4 mg/ml Geneticin (Gibco; Cat#10131); 0.25 mg/ml Zeocin (Invitrogen; Cat#R25001)) in a 15ml centrifuge tube. The cell viability was checked with the help of Trypan Blue dye. Upon washing the cells, those were plated in a 384-well sterile clear bottom black plate (Greiner Bioone Cat# 781091) so that, each well contained 10,000 cells in 40µl complete growth media. The plate was incubated in a 5% CO2 incubator at 37°C for 18 hours. Before assay on the next day, the cell plating media was removed from each well of the plate by decanting and gentle tapping. 30µl of 0.5X Calcium 5 dye solution (0.5X FLIPR Calcium 5 dye (Molecular devices Cat# R8186); HBSS (Invitrogen; Cat#14025); 20mM HEPES (Sigma; Cat#H0887); 2.5mM Probenecid (Sigma; Cat#P8761); 0.025% Pluronic F-127 (Sigma; Cat#P2443); pH adjusted to 7.4) was added to each well. The plate was then incubated at 37°C for 30 minutes. Following which the plate was equilibrated at room temperature for 10 minutes before placing it in a 384 well FLIPR for assay. Compounds were dissolved in DMSO and serially diluted following 11 point half log (3.16 fold) dilution with a starting concentration of 2mM (Final assay concentration 10µM). Aliquots of above mentioned each dilution was mixed with assay buffer (HBSS (Invitrogen; Cat#14025); 20mM HEPES (Sigma; Cat#H0887); 2.5mM Probenecid (Sigma; Cat#P8761); 0.05% gelatin (Sigma; Cat#G1890); 0.1% BSA (Sigma; Cat#A3059); pH adjusted to 7.4) just before performing the assay. Compounds were added to the respective wells of the assay ready cell plate with the help of the FLIPR (FLIPR Tetra) and fluorescence readings were captured for 5 minutes to measure any agonistic response of the compounds. The increase in fluorescence readings from the basal reading in presence of the compounds were compared with that of the control wells (wells having no compound) to calculate the agonistic activity of the compounds. The EC50 values of the compounds were determined using the Graph pad Prism software.
`COCCCN1CC[C@@H](NC(=O)Nc2ccc(Cl)cc2)[C@H](c2ccc(OC)cn2)C1` (racemic) [Ex-80, trans-1-(4-chloro-phenyl)-3-[5-methoxy-1'-(3-methoxy-propyl)-1',2',3',4',5',6'-hexahydro-[2,3']bipyridinyl-4'-yl]-urea] showed a pEC50 of 9.05.
`COc1ccc([C@@H]2CN(C(=O)C3CCN(C)CC3)CC[C@H]2NC(=O)Nc2ccc(Cl)cc2)nc1` (racemic) [Ex-89, trans-1-(4-chloro-phenyl)-3-[5-methoxy-1'-(1-methyl-piperidine-4-carbonyl)-1',2',3',4',5',6'-hexahydro-[2,3']bipyridinyl-4'-yl]-urea] showed a pEC50 of 8.70.
`COc1ccc([C@@H]2CN(C(=O)CN(C)C)CC[C@H]2NC(=O)Nc2ccc(Cl)cc2)nc1` (racemic) [Ex-94, trans-1-(4-chloro-phenyl)-3-[1'-(2-dimethylamino-acetyl)-5-methoxy-1',2',3',4',5',6'-hexahydro-[2,3']bipyridinyl-4'-yl]-urea] gave a pEC50 of 8.70.
For `COc1ccc([C@@H]2CN(CC(F)F)CC[C@H]2NC(=O)Nc2ccc(C#N)cc2)nc1` (racemic) [Ex-113, trans-1-(4-cyanophenyl)-3-[1-(2,2-difluoroethyl)-3-(5-methoxy-2-pyridyl)-4-piperidyl]urea], the pEC50 was 8.92.
Molecule `COc1ccc([C@@H]2CN(C(=O)C3CNC3)CC[C@H]2NC(=O)Nc2ccccc2)nc1` (racemic) [Ex-165, trans-1-[1-(Azetidine-3-carbonyl)-3-(5-methoxy-pyridin-2-yl)-piperidin-4-yl]-3-phenyl-urea] has a pEC50 of 7.96.
Molecule `COc1ccc([C@@H]2CN(c3ccncn3)CC[C@H]2NC(=O)Nc2ccc(Cl)cc2)cn1` (relative stereo) [Ex-1, trans-1-(4-chloro-phenyl)-3-(6'-methoxy-1-pyrimidin-4-yl-1,2,3,4,5,6-hexahydro-[3,3']bipyridinyl-4-yl)-urea] has a pEC50 of 8.22.
For `COc1ccc([C@@H]2CN(c3ccc(F)cc3)CC[C@H]2NC(=O)Nc2ccc(Cl)cc2)cn1` (relative stereo) [Ex-2, trans-1-(4-chloro-phenyl)-3-[1-(4-fluoro-phenyl)-6'-methoxy-1,2,3,4,5,6-hexahydro-[3,3']bipyridinyl-4-yl]-urea], the pEC50 was 7.96.
`COc1ccc([C@@H]2CN(c3ccc(F)cc3)CC[C@H]2NC(=O)Nc2cc(C)ns2)cn1` (relative stereo) [Ex-3, trans-1-[1-(4-fluoro-phenyl)-6'-methoxy-1,2,3,4,5,6-hexahydro-[3,3']bipyridinyl-4-yl]-3-(3-methyl-isothiazol-5-yl)-urea] showed a pEC50 of 8.00.
`COc1ccc([C@@H]2CN(c3ccncn3)CC[C@H]2NC(=O)Nc2cc(C)ns2)cn1` (relative stereo) [Ex-4, trans-1-(6'-methoxy-1-pyrimidin-4-yl-1,2,3,4,5,6-hexahydro-[3,3']bipyridinyl-4-yl)-3-(3-methyl-isothiazol-5-yl)-urea] showed a pEC50 of 7.96.
`COc1ccc([C@@H]2CN(c3ccc(F)cc3)C(=O)C[C@H]2NC(=O)Nc2ccc(Cl)cc2)cn1` (relative stereo) [Ex-5, trans-1-(4-chlorophenyl)-3-[-1-(4-fluorophenyl)-5-(6-methoxypyridin-3-yl)-2-oxopiperidin-4-yl]urea] showed a pEC50 of 9.80.
Work on `COc1ccc([C@H]2CN(c3ccc(F)cc3)C(=O)C[C@H]2NC(=O)Nc2ccc(Cl)cc2)cn1` (relative stereo) [Ex-6, cis-1-(4-chlorophenyl)-3-[1-(4-fluorophenyl)-5-(6-methoxypyridin-3-yl)-2-oxopiperidin-4-yl]urea] yielded a pEC50 of 8.22.
In the case of `COc1ccc([C@@H]2CN(c3ccncn3)CC[C@H]2NC(=O)Nc2ccc(Cl)cc2)nc1` (relative stereo) [Ex-7, trans-1-(4-chloro-phenyl)-3-(5-methoxy-1'-pyrimidin-4-yl-1',2',3',4',5',6'-hexahydro-[2,3']bipyridinyl-4'-yl)-urea], the pEC50 was 9.40.
Work on `COc1ccc([C@@H]2CN(c3ccncn3)CC[C@H]2NC(=O)Nc2cc(C)ns2)nc1` (relative stereo) [Ex-8, trans-1-(5-methoxy-1'-pyrimidin-4-yl-1',2',3',4',5',6'-hexahydro-[2,3']bipyridinyl-4'-yl)-3-(3-methyl-isothiazol-5-yl)-urea] yielded a pEC50 of 9.00.
`O=C(Nc1ccc(Cl)cc1)N[C@@H]1CCN(c2ccncn2)C[C@H]1c1ccc(Cl)cn1` (relative stereo) [Ex-9, trans-1-(4-chloro-phenyl)-3-(5-chloro-1'-pyrimidin-4-yl-1',2',3',4',5',6'-hexahydro-[2,3']bipyridinyl-4'-yl)-urea] showed a pEC50 of 8.70.
In the case of `COc1ccc([C@@H]2CN(c3ccc(F)cc3)C(=O)C[C@H]2NC(=O)Nc2ccc(Cl)cc2)nc1` (relative stereo) [Ex-10, trans-1-(4-chlorophenyl)-3-[1-(4-fluorophenyl)-5-(5-methoxypyridin-2-yl)-2-oxopiperidin-4-yl]urea], the pEC50 was 10.30.
`COc1ccc([C@H]2CN(c3ccc(F)cc3)C(=O)C[C@H]2NC(=O)Nc2ccc(Cl)cc2)nc1` (relative stereo) [Ex-11, cis-1-(4-chlorophenyl)-3-[1-(4-fluorophenyl)-5-(5-methoxypyridin-2-yl)-2-oxopiperidin-4-yl]urea] showed a pEC50 of 8.22.
In the case of `O=C(Nc1ccc(Cl)cc1)N[C@@H]1CCN(c2ccc(F)cc2)C[C@H]1c1ccc(Cl)cn1` (relative stereo) [Ex-12, trans-1-[5-chloro-1'-(4-fluoro-phenyl)-1',2',3',4',5',6'-hexahydro-[2,3']bipyridinyl-4'-yl]-3-(4-chlorophenyl)-urea], the pEC50 was 8.05.
`Cc1cc(NC(=O)N[C@@H]2CCN(c3ccncn3)C[C@H]2c2ccc(Cl)cn2)sn1` (relative stereo) [Ex-13, trans-1-(5-chloro-1'-pyrimidin-4-yl-1',2',3',4',5',6'-hexahydro-[2,3']bipyridinyl-4'-yl)-3-(3-methyl-isothiazol-5-yl)-urea] was tested, and the pEC50 was 8.70.
With `O=C(Nc1ccc(Cl)cc1)N[C@@H]1CC(=O)N(c2ccc(F)cc2)C[C@H]1c1ccc(Cl)cn1` (relative stereo) [Ex-14, trans-1-(4-chlorophenyl)-3-[5-(5-chloropyridin-2-yl)-1-(4-fluorophenyl)-2-oxopiperidin-4-yl]urea] the pEC50 was 9.40.
Work on `COc1ccc([C@@H]2CN(c3ccc(F)cc3)CC[C@H]2NC(=O)Nc2ccc(Cl)cc2)nc1` (relative stereo) [Ex-18, trans-1-(4-chloro-phenyl)-3-[1'-(4-fluoro-phenyl)-5-methoxy-1',2',3',4',5',6'-hexahydro-[2,3']bipyridinyl-4'-yl]-urea] yielded a pEC50 of 9.10.

Same assay, conditions: agonistic response at 0.1µM
`Cc1cc(NC(=O)N[C@@H]2CCN(c3ccncn3)C[C@H]2c2ccc(Cl)cn2)sn1` (relative stereo) [Ex-17, trans-1-(5-chloro-1'-pyrimidin-4-yl-1',2',3',4',5',6'-hexahydro-[2,3']bipyridinyl-4'-yl)-3-(3-methyl-isothiazol-5-yl)-urea] gave an activation at 0.1 µM of 30%.
